# In ChEMBL document CHEMBL1817626, “The structure-activity relationship of urea derivatives as anti-tuberculosis agents” (Bioorg Med Chem, 2011):
# pIC50: −log10 of the molar value. Calls of active or inactive are those of the source. The rule behind the calls is not given here.
# Key:
# [1] = target: T1, Hydrolase, alpha/beta hydrolase fold family (Mycobacterium tuberculosis) (UniProt O69638); experiment: Inhibition of Mycobacterium tuberculosis recombinant EphE expressed in Escherichia coli BL21 using CMNPC as substrate at 10 nM after 30 mins by fluorescent assay relative to control
# T1 sequence (whole entry): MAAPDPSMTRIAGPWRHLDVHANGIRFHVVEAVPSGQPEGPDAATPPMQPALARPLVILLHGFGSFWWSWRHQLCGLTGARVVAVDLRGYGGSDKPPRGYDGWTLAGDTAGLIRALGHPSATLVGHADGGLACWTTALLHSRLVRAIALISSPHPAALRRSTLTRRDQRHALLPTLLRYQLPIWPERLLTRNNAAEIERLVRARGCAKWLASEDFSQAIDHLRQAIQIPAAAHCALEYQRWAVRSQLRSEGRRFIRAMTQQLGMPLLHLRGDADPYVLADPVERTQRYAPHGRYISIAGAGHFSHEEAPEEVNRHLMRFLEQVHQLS
# [2] = target: T2, Epoxide hydrolase B (Mycobacterium tuberculosis) (UniProt P95276); experiment: Inhibition of Mycobacterium tuberculosis recombinant EphB expressed in Escherichia coli BL21 using CMNPC as substrate at 10 nM after 30 mins by fluorescent assay relative to control
# T2 sequence (whole entry): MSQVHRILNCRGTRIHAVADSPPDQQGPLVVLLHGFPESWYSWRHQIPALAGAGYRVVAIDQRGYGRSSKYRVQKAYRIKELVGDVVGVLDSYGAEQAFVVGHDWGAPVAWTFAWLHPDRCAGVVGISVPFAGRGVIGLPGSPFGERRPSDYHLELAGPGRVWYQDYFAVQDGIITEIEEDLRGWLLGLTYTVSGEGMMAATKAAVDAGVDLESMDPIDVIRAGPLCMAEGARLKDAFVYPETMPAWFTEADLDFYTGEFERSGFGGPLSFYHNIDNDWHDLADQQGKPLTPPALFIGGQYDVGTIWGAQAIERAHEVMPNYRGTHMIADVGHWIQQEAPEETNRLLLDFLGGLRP
# [3] = target: T3, Bifunctional epoxide hydrolase 2 (Homo sapiens, UniProt P34913); experiment: Inhibition of human recombinant soluble epoxide hydrolase using CMNPC as substrate after 10 mins by fluorescent assay
# T3 sequence (P34913 whole entry): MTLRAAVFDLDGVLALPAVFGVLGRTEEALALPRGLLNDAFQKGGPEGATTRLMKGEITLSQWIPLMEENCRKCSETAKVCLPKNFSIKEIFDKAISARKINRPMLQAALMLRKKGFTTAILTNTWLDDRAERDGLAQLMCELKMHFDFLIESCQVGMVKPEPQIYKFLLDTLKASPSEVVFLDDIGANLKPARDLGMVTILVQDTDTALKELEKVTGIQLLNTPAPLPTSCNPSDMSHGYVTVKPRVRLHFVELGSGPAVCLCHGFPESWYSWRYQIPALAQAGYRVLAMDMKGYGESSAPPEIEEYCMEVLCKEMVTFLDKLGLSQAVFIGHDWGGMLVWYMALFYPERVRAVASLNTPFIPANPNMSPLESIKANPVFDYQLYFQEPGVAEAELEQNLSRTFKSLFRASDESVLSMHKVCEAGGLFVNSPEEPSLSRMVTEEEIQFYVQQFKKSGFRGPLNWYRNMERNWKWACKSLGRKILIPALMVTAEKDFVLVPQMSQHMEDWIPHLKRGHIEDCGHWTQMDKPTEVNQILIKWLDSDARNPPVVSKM
# [4] = system: Mycobacterium tuberculosis; experiment: microbe, parasite or virus in culture; conditions: H37Rv, 168 h
# [5] = system: Pseudomonas aeruginosa; experiment: Antibacterial activity against Pseudomonas aeruginosa; type: functional
# [6] = system: Bacillus anthracis; experiment: microbe, parasite or virus in culture
# [7] = system: Klebsiella pneumoniae; experiment: Antibacterial activity against Klebsiella pneumoniae; type: functional
# [8] = system: Escherichia coli; experiment: Antibacterial activity against Escherichia coli […] TolC; type: functional
# [9] = system: Mycolicibacterium smegmatis; experiment: microbe, parasite or virus in culture; conditions: str. MC2 155, 168 h
# [10] = system: Enterococcus faecalis; experiment: Antibacterial activity against Enterococcus faecalis; type: functional
# [11] = system: Escherichia coli; experiment: Antibacterial activity against Escherichia coli K12; type: functional; conditions: K-12
# [12] = system: Staphylococcus aureus; experiment: Antibacterial activity against Staphylococcus aureus; type: functional
# [13] = system: Vero; experiment: Cytotoxicity against african green monkey Vero cells after 72 hrs by MTT assay; type: cell-based; conditions: Chlorocebus sabaeus
# [14] = system: Enterococcus faecium; experiment: Antibacterial activity against Enterococcus faecium; type: functional
SMILES,inhibition [1],inhibition [2],pIC50 [3],MIC [4],MIC [5],MIC [6],MIC [7],MIC [8],MIC [9],MIC [10],MIC [11],MIC [12],IC50 [13],MIC [14]
O=C(NCc1cccc(Cl)c1)Nc1cccc(C(F)(F)F)c1F,15.5%,16.6%,8.43,1.6 µg/mL,> 200 µg/mL,> 200 µg/mL,> 200 µg/mL,> 200 µg/mL,> 200 µg/mL,> 200 µg/mL,> 200 µg/mL,> 200 µg/mL,193 µg/mL,> 200 µg/mL
CCCCCCNC(=O)NC1C2CC3CC(C2)CC1C3 (configuration not stated),100%,32%,9.00,0.01 µg/mL,> 200 µg/mL,> 200 µg/mL,> 200 µg/mL,> 200 µg/mL,6.25 µg/mL,> 200 µg/mL,> 200 µg/mL,> 200 µg/mL,175 µg/mL,> 200 µg/mL
O=C(NCc1ccccc1)NC1C2CC3CC(C2)CC1C3 (configuration not stated),34.1%,inactive,7.83,3.1 µg/mL,> 200 µg/mL,> 200 µg/mL,> 200 µg/mL,> 200 µg/mL,100 µg/mL,> 200 µg/mL,> 200 µg/mL,> 200 µg/mL,4.2 µg/mL,> 200 µg/mL
CCCCCCCNC(=O)NC1C2CC3CC(C2)CC1C3 (configuration not stated),99.9%,37.1%,9.30,0.2 µg/mL,> 200 µg/mL,> 200 µg/mL,> 200 µg/mL,> 200 µg/mL,1.6 µg/mL,> 200 µg/mL,> 200 µg/mL,> 200 µg/mL,20 µg/mL,> 200 µg/mL
CC(C)(C)NC(=O)NC1C2CC3CC(C2)CC1C3 (configuration not stated),55.4%,20.7%,7.62,12.5 µg/mL,> 200 µg/mL,> 200 µg/mL,> 200 µg/mL,> 200 µg/mL,> 200 µg/mL,> 200 µg/mL,> 200 µg/mL,> 200 µg/mL,372 µg/mL,> 200 µg/mL
CCCOCCNC(=O)NC12CC3CC(CC(C3)C1)C2,35%,16.6%,6.62,25 µg/mL,> 200 µg/mL,> 200 µg/mL,> 200 µg/mL,200 µg/mL,200 µg/mL,> 200 µg/mL,> 200 µg/mL,> 200 µg/mL,265 µg/mL,> 200 µg/mL
COC(=O)c1ccc(NC(=O)NC23CC4CC(CC(C4)C2)C3)cc1O,79.5%,26.9%,8.92,0.4 µg/mL,> 200 µg/mL,> 200 µg/mL,> 200 µg/mL,> 200 µg/mL,50 µg/mL,> 200 µg/mL,> 200 µg/mL,> 200 µg/mL,30.3 µg/mL,> 200 µg/mL
CC(C)NC(=O)NC1C2CC3CC(C2)CC1C3 (configuration not stated),57.3%,27.2%,7.07,50 µg/mL,> 200 µg/mL,> 200 µg/mL,> 200 µg/mL,> 200 µg/mL,> 100 µg/mL,> 200 µg/mL,> 200 µg/mL,> 200 µg/mL,23.4 µg/mL,> 200 µg/mL
O=C(NCCc1ccccc1)NC1C2CC3CC(C2)CC1C3 (configuration not stated),87.9%,34.1%,8.35,0.01 µg/mL,> 200 µg/mL,> 200 µg/mL,> 200 µg/mL,> 200 µg/mL,25 µg/mL,> 200 µg/mL,> 200 µg/mL,> 200 µg/mL,30.2 µg/mL,> 200 µg/mL
Cc1ccc(NC(=O)NCc2cccc(F)c2)cc1Cl,19%,18.6%,7.78,6 µg/mL,> 200 µg/mL,> 200 µg/mL,> 200 µg/mL,> 200 µg/mL,> 200 µg/mL,> 200 µg/mL,> 200 µg/mL,> 200 µg/mL,342 µg/mL,> 200 µg/mL
O=C(Nc1cccc(C(F)(F)F)c1F)NC1CCCCCCC1,56.3%,17%,9.40,0.8 µg/mL,> 200 µg/mL,3.12 µg/mL,> 200 µg/mL,25 µg/mL,0.4 µg/mL,> 200 µg/mL,> 200 µg/mL,> 200 µg/mL,25.3 µg/mL,> 200 µg/mL
CCCNC(=O)NC1C2CC3CC(C2)CC1C3 (configuration not stated),73.6%,51.9%,7.21,12.5 µg/mL,> 200 µg/mL,> 200 µg/mL,> 200 µg/mL,> 200 µg/mL,200 µg/mL,> 200 µg/mL,> 200 µg/mL,> 200 µg/mL,171 µg/mL,> 200 µg/mL
CC(C)OCCNC(=O)NC12CC3CC(CC(C3)C1)C2,14.7%,11.9%,6.58,25 µg/mL,> 200 µg/mL,> 200 µg/mL,> 200 µg/mL,> 200 µg/mL,200 µg/mL,> 200 µg/mL,> 200 µg/mL,> 200 µg/mL,6.4 µg/mL,> 200 µg/mL
